Columns and labels:
Assay type in all cases: cell-based
[1] = tested on: S. mutans (ATCC 25175); test: Determination of the minimum bactericidal concentration (MBC); conditions: Streptococcus mutans, ATCC25175; against S. Mutans
Procedure: (§1) A 20 mg/mL compound stock solution in BHI medium is prepared. In a 96-well plate, the compound solution is diluted serially (the concentration is halved at each step) to obtain the following final concentrations after addition of the bacteria suspension: 10 mg/mL; 5 mg/mL; 2.5 mg/mL; 1.25 mg/mL; 0.625 mg/mL; 0.31 mg/mL; 0.15 mg/mL; 0.08 mg/mL; 0.04 mg/mL; 0.02 mg/mL. Wells containing a mixture of penicillin and streptomycin antibiotics are used as a positive control. Compound-free medium is used as a growth control. A volume of bacterial suspension equal to 0.5*10^6 bacteria/mL is added to each well containing the compound and the controls. The dish is incubated at 37° C. for 24 hours. The lowest compound concentration at which no turbidity of the culture medium is evident is defined as MIC. For the calculation of MBC, aliquots equal to 50 μL are taken from the wells showing evident no turbidity of the medium and are plated on BHI agar plates for 48 hours. […] Bacterial suspensions taken from the positive control (growth medium only) and the negative control (growth medium with Ampicilin 100 μg/mL) are also seeded.
(§2) In order to test the antibacterial properties of the compounds prepared in Examples 1-8, on colonies of S. mutans (ATCC 25175), a bacterium commonly found in the human oral cavity, a test was set up to determine the minimum inhibitory concentration (MIC) and the minimum bactericidal concentration (MBC) according to the “Determination of minimum inhibitory concentration (MIC)” methods and “Determination of minimum bactericidal concentration (MBC)” described above.

[2] = tested on: S. mutans (ATCC 25175); test: Determination of the minimum inhibitory concentration (MIC); conditions: Streptococcus mutans, ATCC25175; against S. Mutans
Procedure: (§3) A colony of bacterium taken from agar plate is inoculated in Brain Hearth Infusion medium (BHI) and grown overnight at 37° C. The next day, the bacteria are diluted in fresh medium containing the phenol red indicator, up to a density of 10^6 bacteria/mL.
(§4) A stock solution of 2 mg/mL of compound is prepared in BHI medium containing phenol red.
(§5) In a 96-well plate, the compound stock solution is diluted serially (the concentration is halved at each step) to obtain the following final concentrations after addition of the bacteria suspension: 1 mg/mL; 0.5 mg/mL; 0.25 mg/mL; 0.125 mg/mL; 0.065 mg/mL; 0.032 mg/mL; 0.016 mg/mL; 0.008 mg/mL; 0.004 mg/mL; 0.002 mg/mL; 0.001 mg/mL. A compound-free medium is used as a growth control. A volume of bacterial suspension equal to 0.5*10^6 bacteria/mL is added to each well containing the compound and the control. The dish is incubated at 37° C. for 24 hours. Bacterial growth in each well is detected by the phenol red, which turns from red to yellow following acidification of the medium induced by bacterial metabolism. The lowest concentration of the compound causing no evident color change corresponds to the MIC.
as §2

[3] = tested on: bacteria grown on agar; test: Determination of bacterial inhibition - agar diffusion test of primer formulations; conditions: for zone of inhibition at 1 % strength: 1% by weight of compound; for zone of inhibition at 5 % strength: 5% by weight of compound; for zone of inhibition at 10 % strength: 10% by weight of compound
Source text: A test adapted from a commonly used method for determining the sensitivity of a bacterial strain to antibiotics in solution, known as Kirby-Bauer antibiotic testing or disc diffusion antibiotic sensitivity testing was used (Brown D F, Kothari D (1975), “Comparison of antibiotic discs from different sources”, J. Clin. Pathol. 28 (10): 779-83. Doi: 10.1136 /jcp.28.10.779). The test performed involves the use of discs imbued with a known concentration of the substance under examination that are placed on a layer of bacteria grown on agar. The diffusion of the bactericidal molecule from the disk into the agar causes the inhibition of bacterial growth in the area surrounding the disk itself where the molecule has spread with the formation of what are called zones of growth inhibition. The diameter of these inhibition zones (transparent circular regions in comparison to the bacterial film) is proportional to the antibacterial efficacy of the molecule to its concentration and to its diffusion ability in the medium.
The bactericidal properties of the compounds according to Examples 1, 3, 5, 6 and 7 were tested in various primer-type preparations, using the method “Bacterial inhibition determination-Agar diffusion test” described above. The disk soaked in the tested primer formulation without addition of compounds according to Examples 1, 3, 5, 6 and 7 was used as a negative reference.
For the tests, the following primer-type formulations were used, identified by the following codes: […]

[4] = tested on: S. Aureus (ATCC 25923); test: Determination of the minimum bactericidal concentration (MBC)
Procedure: as §1
(§6) The compounds according to Examples 1, 3, 5, 6, and 7 were tested on bacterial strains different from S. mutans with the same methods described above, obtaining the MIC and MBC values reported in Table 2.

[5] = tested on: S. Sanguis (ATCC 10556); test: as above
Procedure: as §1, §6

[6] = tested on: S. Mitis (ATCC 49456); test: as above
Procedure: as §1, §6

[7] = tested on: E. coli (ATCC25922); test: as above
Procedure: as §1, §6

[8] = tested on: S. Aureus (ATCC 25923); test: Determination of the minimum inhibitory concentration (MIC); conditions: Staphylococcus aureus, ATCC25923
Procedure: as §3, §4, §5, §6

[9] = tested on: S. Sanguis (ATCC 10556); test: as above
Procedure: as §3, §4, §5, §6

[10] = tested on: S. Mitis (ATCC 49456); test: as above; conditions: Streptococcus mitis, ATCC49456
Procedure: as §3, §4, §5, §6

[11] = tested on: E. coli (ATCC25922); test: as above; conditions: Escherichia coli
Procedure: as §3, §4, §5, §6

`C=C(C)C(=O)OCC[N+](C)(C)CCCCCCCCCCCC[N+](C)(C)CCOC(=O)C(=C)C` [Example 2] gave an MBC [1] of 313 µg/mL and an MIC [2] of 156 µg/mL.

In the case of `C=C(C)C(=O)NCCC[N+](C)(C)CCCCCCCCCCCC[N+](C)(C)CCCNC(=O)C(=C)C.[Br-].[Br-]` [Example 3], the zone of inhibition at 1 % strength ([3]; primer L1A) is reported as 8 mm, the zone of inhibition at 5 % strength ([3]; primer L1A) is reported as 11 mm and the zone of inhibition at 10 % strength ([3]; primer L1A) is reported as 13 mm. The zone of inhibition at 1 % strength ([3]; primer L1B) was 0 mm, the zone of inhibition at 5 % strength ([3]; primer L1B) was 7 mm and the zone of inhibition at 10 % strength ([3]; primer L1B) was 10 mm. For the same compound, the zone of inhibition at 1 % strength ([3]; primer L2A) was 6 mm, the zone of inhibition at 5 % strength ([3]; primer L2A) was 7 mm and the zone of inhibition at 10 % strength ([3]; primer L2A) was 10 mm. It also gave a zone of inhibition at 1 % strength ([3]; primer L2B) of 6 mm, a zone of inhibition at 5 % strength ([3]; primer L2B) of 7 mm and a zone of inhibition at 10 % strength ([3]; primer L2B) of 10 mm. For the same compound, the zone of inhibition at 1 % strength ([3]; primer R5A) was 6 mm, the zone of inhibition at 5 % strength ([3]; primer R5A) was 6 mm and the zone of inhibition at 10 % strength ([3]; primer R5A) was 8 mm. The zone of inhibition at 1 % strength ([3]; primer R5B) was 0 mm, the zone of inhibition at 5 % strength ([3]; primer R5B) was 0 mm and the zone of inhibition at 10 % strength ([3]; primer R5B) was 8 mm. The MCB [4] was 1.25 mg/mL, the MCB [5] was 0.62 mg/mL and the MCB [6] was 0.62 mg/mL. For the same compound, the MCB [7] was 1.25 mg/mL, the MBC [1] was 310 µg/mL and the MIC [2] was 150 µg/mL. For the same compound, the MIC [8] was 625 µg/mL, the MIC [9] was 620 µg/mL and the MIC [10] was 620 µg/mL. The MIC [11] was 1250 µg/mL.

`C=C(C)C(=O)NCCC[N+](C)(C)CCCCCCCCCCCC[N+](C)(C)CCCNC(=O)C(=C)C.[F-].[F-]` [Example 4] showed an MBC [1] of 156 µg/mL and an MIC [2] of 156 µg/mL.

For `C=C(C)C(=O)OCC[N+](C)(C)Cc1ccc(C[N+](C)(C)CCOC(=O)C(=C)C)cc1.[Br-].[Br-]` [Example 8], the MBC [1] was 2500 µg/mL and the MIC [2] was 2500 µg/mL.

Reference: patent US20220402872A1, “PHOTOPOLYMERIZABLE ANTIBACTERIAL MONOMER” (UNIVERSITA' DEGLI STUDI DI TRIESTE, priority 2019, published 2022)
